Measurements from patent publication US5648349A, “PLA2 inhibitors” (Monsanto Company, priority 1995, dated 1997).
Where two headings read alike, the source gives them in different places.

Assays:
[1] = system: purified calcium-independent canine myocardial PLA2; assay: Calcium-Independent PLA2 Assay (purified canine myocardial cytosolic PLA2, release of radiolabeled oleic acid); format: biochemical; conditions: pH 7.0, 6.4 mM EGTA, 1 μM substrate, 5 min at 37° C., read-out: IC50 Canine Heart PLA2
Method: This assay consists of determining the amount of radiolabeled fatty acid which is liberated from the radiolabeled phospholipid substrate by purified calcium-independent canine myocardial PLA2 in the presence of varying concentrations of the inhibitor. The concentration of inhibitor which decreases the activity of the enzyme to 50% of the activity observed in the absence of that inhibitor is determined. This concentration is defined as the IC50.
Calcium-Independent PLA2 Assay
Purified canine myocardial cytosolic PLA2 was isolated from an ATP-agarose eluate as described by Wolf, R. A., and Gross, R. W., J. Biol. Chem., 260, 7295-7303 (1985). The calcium-independent myocardial PLA2 was incubated with selected concentrations (10^-10 to 10^-4 M) of test compound in 168 mM Tris-Cl, 6.4 mM EGTA (a calcium chelator) (pH 7.0) for 5 min. at 25° C. Appropriate controls were performed in the absence of test compound. Catalysis was initiated by injection of 1 μM radiolabeled substrate (1-O-(Z)-(1'-hexadecenyl)-2-[9,10^-3 H]-oleoyl-3-phosphorylcholine). After a 5 min. incubation at 37° C., reaction products were extracted with n-butanol, separated by thin layer chromatography, and quantified by scintillation spectrometry. PLA2 activity was compared in the presence and absence of test compound and the IC50 was determined.

sheep platelet PLA2 = assay: Micromolar Calcium-Dependent PLA2 Assay (sheep platelet cytosolic PLA2); format: biochemical; conditions: pH 7.2, 1 μM CaCl2, 1 μM substrate, 10 min at 37° C.
From the text: (§1) Specifically, one micromolar calcium-dependent mammalian PLA2 assay was used, i.e., sheep platelet PLA2, and two millimolar calcium-dependent mammalian PLA2 assays were used, i.e., human synovial fluid PLA2 and porcine pancreatic PLA2. The PLA2 enzymes represent different groups of PLA2 enzymes. Myocardial PLA2, platelet PLA2 and secreted PLA2 enzymes (human synovial fluid PLA2 and porcine pancreatic PLA2) have very different calcium requirements, which may be typical of their respective classes.
Micromolar Calcium-Dependent PLA2 Assay
Homogeneous sheep platelet cytosolic PLA2 was prepared as described by Loeb, L. A., and Gross, R. W., J. Biol. Chem., 261, 10467-10470 (1986). The purified calcium-dependent platelet PLA2 was preincubated in 70 mM Tris-Cl (pH 7.2) containing 1 μM CaCl2 and test compound for 5 min. at 25° C. Catalysis was initiated by injection of 1 μM radiolabeled substrate (1-O-(Z)-(1'-hexadecenyl)-2-[9,10^-3 H]-oleoyl-3-phosphorylcholine). After a 10 min. incubation period at 37° C., reaction products were extracted with n-butanol, separated by thin layer chromatography, and quantified by scintillation spectrometry. PLA2 activity was compared in the presence and absence of test compound and the IC50 was determined.
See Zupan, L. A., et al, "Calcium is sufficient but not necessary for activation of sheep platelet cytosolic phospholipase A2 ", FEBS Letters, Vol. 284, No. 1, 27-30 (1991).

[2] = molecular target: T1, human synovial fluid PLA2 (Homo sapiens, UniProt P14555); assay: Millimolar Calcium-Dependent PLA2 Assay (human synovial fluid PLA2, [14C]-oleate labeled E. coli substrate); format: biochemical; conditions: pH 7.0, 5 mM CaCl2, 30 min at 37° C., ">>" = little or no inhibition at highest concentration used
T1 construct: Purified human synovial fluid PLA2; tissue R. C; Franson (Medical College of Virginia, Richmond, Va.); host or cells: human synovial fluid
T1 sequence (P14555 21-144): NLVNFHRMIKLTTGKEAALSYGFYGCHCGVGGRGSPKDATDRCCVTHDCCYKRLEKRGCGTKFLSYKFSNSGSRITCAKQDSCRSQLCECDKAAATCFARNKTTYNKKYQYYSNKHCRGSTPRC
From the text: as §1
(§2) Millimolar Calcium-Dependent PLA2 Assays
Purified human synovial fluid PLA2 (purified by the procedure of Fawzy, A. A. and Franson, R. C. Biophys. J. 49, 533a [1986]) was obtained from R. C. Franson (Medical College of Virginia, Richmond, Va.). PLA2 activity was measured by using [^14 C]-oleate labeled autoclaved E. coli as substrate as described by Franson, R. C., Patriarca, P., and Elsbach, P. J., Lipid Res. 15, 380-388 (1974). The assay was performed at 37° C. for 30 min. in a final volume of 100 μL 50 mM Hepes buffer (pH 7.0) containing 150 mM NaCl, 5 mM CaCl2, and E. coli cells (corresponding to 10 nmol phospholipid). The test compound or control vehicle was preincubated with PLA2 for 5 min., followed by adding E. coli to initiate the reaction. The reaction was terminated by adding 2 mL tetrahydrofuran. The reaction product, [^14 C]-oleic acid, was isolated using a 1 mL Bond Elute--NH2 column and counted by liquid scintillation spectrometry.

porcine pancreatic PLA2 = molecular target: T2, porcine pancreatic PLA2 (Sus scrofa, UniProt P00592); assay: Millimolar Calcium-Dependent PLA2 Assay (porcine pancreatic PLA2, [14C]-oleate labeled E. coli substrate); format: biochemical
T2 construct: Purified porcine pancreatic PLA2 was obtained from Sigma; purchased Sigma (St. Louis, Mo.); host or cells: porcine pancreas
From the text: as §1, §2
Purified porcine pancreatic PLA2 was obtained from Sigma (St. Louis, Mo.). PLA2 activity was measured by using [14C]-oleate labeled autoclaved E. coli as described by Franson, Patriarca and Elsbach (referenced above). The assay was performed at 37° C. for 5 min. in a final volume of 100 μL Tris-HCl buffer (100 mM, pH 8.0) containing 1 mM EDTA, 10 mM CaCl2, and E. coli (containing […] phospholipid). The test compound or control vehicle was preincubated with PLA2 for 5 min. followed by adding E. coli to initiate the reaction. The reaction was terminated by adding 2 mL tetrahydrofuran. The reaction product [^14 C]-oleic acid, was isolated using a 1 mL Bond Elute--NH2 column and counted by liquid scintillation spectrometry.

HL-60 cells = assay: HL-60 Cell Assay for LTB4 and PGE2 Production (calcium ionophore A23187 induced); format: cell-based; conditions: Homo sapiens; for IC50: A23187 5×10^-6 M
Method: An additional whole cell assay was also performed. In this assay, HL-60 cells are induced with the calcium ionophore A23187 in the presence of varying amounts of inhibitor, and the amounts of the prostaglandin E2 (PGE2) and leukotriene B4 (LTB4) which form are measured. Calcium ionophore A23187 activates a calcium-dependent PLA2 which leads to the enhanced production of the arachidonic acid metabolites PGE2 and LTB4. The concentrations of inhibitor which decrease the production of PGE2 and LTB4 by 50% relative to controls are expressed as IC50 values.
HL-60 Cell Assay for LTB4 and PGE2 Production
HL-60 cells grown exponentially in culture were induced to differentiate into granulocytes by a four day incubation with 0.8% (v/v) N,N-dimethylformamide. Prior to assay, differentiated HL-60 cells were washed once with Hanks' balanced salt solution containing 0.35 mg/mL sodium bicarbonate and 10 mM Hepes, pH 7.3 (HBSS) and resuspended in HBSS at a 3×10^6 cells/mL concentration. DMSO or test compounds solubilized in DMSO were added at 1:100 dilution to 1.0 mL HL-60 cell suspensions (3×10^6 cells) and preincubated at 37° C. for 10 min. in a shaking water bath. After an additional 5 min. incubation with 5×10^-6 M calcium ionophore, A23187 (Calbiochem, LaJolla, Calif.), the cells were centrifuged at 12,800×6 for 15 seconds and the supernatant (0.8 mL) removed and stored at -20° C. for LTB4 and PGE2 quantitation by radioimmunoassay (kits obtained from Amersham, United Kingdom and NEN Research Products, N. Billerica, Mass.).

rat neonatal myocytes = conditions: cited from earlier work
[3] = human synovial fluid, read-out: IC50 HSF PLA2
[4] = pH 8.0, 10 mM CaCl2, 5 min at 37° C., ">>" = little or no inhibition at highest concentration used, read-out: IC50 Porcine Pancreatic PLA2
[5] = LTB4 production, ">>" = little or no inhibition at highest concentration used, read-out: IC50 HL-60 LTB4
[6] = PGE2 production, ">" inhibition but not enough for IC50, ">>" little or no inhibition at highest concentration, read-out: IC50 HL-60 PGE2
[7] = IC50 HSF PLA2, human synovial fluid

T2 sequence (P00592 23-146): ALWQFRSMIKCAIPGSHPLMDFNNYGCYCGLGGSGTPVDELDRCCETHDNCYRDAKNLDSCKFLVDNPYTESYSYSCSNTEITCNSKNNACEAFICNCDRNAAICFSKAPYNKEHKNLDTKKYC

SMILES | IC50 [1] [nM] | IC50 (sheep platelet PLA2) [nM] | IC50 [2, 3] [nM] | IC50 (HL-60 cells; [5]) [nM] | IC50 (HL-60 cells; [6]) [nM] | also measured
CCCCCCCCCCCC#Cc1cccc(C=C(P(=O)(OCC)OCC)P(=O)(OCC)OCC)c1 [Example 1, Tetraethyl [2-[3-(1-tridecynyl)phenyl]ethenylidene]bisphosphonate] | 560 | 180 | > 100000 | 1200 | 3000 | activation at 100 µM (porcine pancreatic PLA2; 5 min, footnote a to the entry 100 (μM), + = activation): 40%; IC50 (porcine pancreatic PLA2; [4]): 100000 nM
CCCCCCCCCCCC#Cc1cccc(C=C(P(=O)(O)O)P(=O)(O)O)c1 [Example 2, [2-[3-(1-Tridecynyl)phenyl]ethenylidene]bisphosphonic acid] | 450 | 11000 | 31000 | > 10000 | > 10000 | IC50 (porcine pancreatic PLA2): > 100000 nM
CCCCCCCCCCCC#Cc1cccc(C=C(P(=O)(O)O)P(=O)(O)O)c1 [Example 3, Disodium [2-[3-(1-tridecynyl)phenyl]ethenylidene]bisphosphonate] | 360 | 3200 |  |  |  | IC50 [2, 7]: 38000 nM
CCCCCCCCCCCC#Cc1ccccc1/C=C(\C(=O)OCC)P(=O)(OCC)OCC [Example 5, Ethyl 2-(diethoxyphosphinyl)-3-[2-(1-tridecynyl)phenyl]-2-E-propenoate] | 340 | 2400 | > 100000 | 1300 | 2300 | IC50 (porcine pancreatic PLA2; [4]): > 100000 nM
CCCCCCCCCCCC#Cc1ccccc1/C=C(\C(=O)OCC)P(=O)(O)O [Example 6, Ethyl E-2-phosphono-3-[2-(1-tridecynyl)phenyl]propenoate] |  |  | 16000 | 4400 | 3500 | IC50 (porcine pancreatic PLA2; [4]): 2500 nM
CCCCCCCCCCCC#Cc1cccc(P(=O)(OCC)OCC)c1 [Example 8, Diethyl [3-(1-tridecynyl)phenyl]phosphonate] | 360 | 220 |  |  |  | 
CCCCCCCCCCCC#Cc1ccccc1C=C(P(=O)(OCC)OCC)P(=O)(OCC)OCC [Example 9, Tetraethyl [2-[2-(1-tridecynyl)phenyl]ethenylidene]bisphosphonate] | 1500 | 160 | > 100000 | 2600 | 4400 | 
CCCCCCCCCCCC#Cc1ccccc1C=C(P(=O)(O)O)P(=O)(O)O [Example 10, [2-[2-(1-Tridecynyl)phenyl]ethenylldene]bisphosphonic acid] | 710 | 50000 | 50000 | 10000 | > 10000 | IC50 (porcine pancreatic PLA2): > 100000 nM; activation at 10 µM (HL-60 cells; footnote b to the entry 10 (μM), + = activation, LTB4): 21%
CCCCCCCCCCCC#Cc1ccccc1C=C(P(=O)(O)O)P(=O)(O)O [Example 11, Disodium [2-[2-(1-tridecynyl)phenyl]ethenylidene]bisphosphonate] | 1900 | 2800 |  |  |  | IC50 [2, 7]: 25000 nM
CCCCCCCCCCCC#Cc1ccccc1/C=C/P(=O)(OCC)OCC [Example 13, Diethyl E-2-[2-(1-tridecynyl)phenyl]ethenylphosphonate] | 3000 | 1100 |  |  |  | 
CCCCCCCCCCCC#Cc1ccccc1/C=C/P(=O)(O)O [Example 14, 2-[2-(1-Tridecynyl)phenyl]ethenylphosphonic acid] | 4500 | 2900 |  |  |  | 
CCCCCCCCC(=O)NCC#Cc1ccccc1C=C(P(=O)(OCC)OCC)P(=O)(OCC)OCC [Example 18, Tetraethyl [2-[2-[3-[(1-oxononyl)amino]-1-propynyl]phenyl]ethenylidene]bisphosphonate] | > 100000 | ~100000 |  |  |  | 
COC1=CCC2=C(CCC3C2CC[C@@]2(C)C3CC[C@@H]2N(C)CCCN(C)C)C1 (stereo partly drawn) [U26,384] |  |  |  |  |  | release of arachidonic acid, phospholipid degradation, sarcolemmal membrane defects and release of creatine kinase induced by iodoacetate (rat neonatal myocytes; rat neonatal myocytes treated with iodoacetate, Sen et al (cited)): prevented the release of arachidonic acid, phospholipid degradation, sarcolemmal membrane defects and the release of creatine kinase
O=C(O)CI [iodoacetate] |  |  |  |  |  | levels of ATP, release of arachidonic acid and morphological alterations of the myocytes (rat neonatal myocytes; rat neonatal myocytes, Chien et al 1985 (cited)): lowers the levels of ATP which results in the release of arachidonic acid and morphological alterations of the myocytes
